The text below walks through data of publication PMC4310350 (Drug Design, Development and Therapy, 2015).

“Also recorded” adds a separate entry of the source. Where two headings read alike, the source gives them in different places.

The target of data set [1] is T1, OAT3 (Homo sapiens, UniProt Q8TCC7).
T1 sequence (Q8TCC7 1-542): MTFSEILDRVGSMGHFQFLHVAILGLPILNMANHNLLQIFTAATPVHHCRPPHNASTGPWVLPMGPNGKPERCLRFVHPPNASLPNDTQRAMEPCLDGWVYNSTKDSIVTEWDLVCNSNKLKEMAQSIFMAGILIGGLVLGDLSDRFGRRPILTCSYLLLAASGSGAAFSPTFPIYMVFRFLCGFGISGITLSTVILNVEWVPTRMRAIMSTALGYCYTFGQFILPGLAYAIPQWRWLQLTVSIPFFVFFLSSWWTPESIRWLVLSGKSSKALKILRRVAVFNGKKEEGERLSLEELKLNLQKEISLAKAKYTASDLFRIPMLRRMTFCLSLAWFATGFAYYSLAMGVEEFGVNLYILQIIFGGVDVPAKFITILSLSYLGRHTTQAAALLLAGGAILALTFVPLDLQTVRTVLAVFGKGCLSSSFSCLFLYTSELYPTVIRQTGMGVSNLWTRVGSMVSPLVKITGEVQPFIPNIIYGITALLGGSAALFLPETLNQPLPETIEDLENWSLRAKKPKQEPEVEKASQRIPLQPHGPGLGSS
The following applies: 10 μM catalposide, HEK293-OAT3.

Data set [2] addresses T1, OAT3. Put plainly: in vitro. The following applies: HEK293 cells transiently expressing OAT3, probe catalposide 10 μM.
In data set [3] the target is T1, OAT3. The following applies: cited from earlier work.
Another data set deals with T2, OAT1 (Homo sapiens, UniProt Q4U2R8).
T2 sequence (Q4U2R8 1-563): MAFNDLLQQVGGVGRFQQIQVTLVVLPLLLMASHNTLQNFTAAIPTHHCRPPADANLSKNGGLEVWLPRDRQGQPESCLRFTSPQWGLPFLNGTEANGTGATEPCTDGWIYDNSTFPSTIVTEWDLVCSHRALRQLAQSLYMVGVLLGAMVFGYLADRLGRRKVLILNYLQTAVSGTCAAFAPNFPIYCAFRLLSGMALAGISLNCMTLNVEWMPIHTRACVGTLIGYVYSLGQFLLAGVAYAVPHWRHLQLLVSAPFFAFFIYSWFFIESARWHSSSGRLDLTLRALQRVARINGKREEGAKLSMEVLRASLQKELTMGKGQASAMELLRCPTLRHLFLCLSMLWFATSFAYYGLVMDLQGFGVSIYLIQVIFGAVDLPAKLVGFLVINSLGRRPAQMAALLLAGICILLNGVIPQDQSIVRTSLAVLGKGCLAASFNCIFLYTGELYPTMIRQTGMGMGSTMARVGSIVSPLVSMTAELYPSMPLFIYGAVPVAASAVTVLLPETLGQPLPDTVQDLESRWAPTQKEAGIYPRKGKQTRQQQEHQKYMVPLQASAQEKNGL
The following applies: cited from earlier work.

The target of a further data set is T3, OATP1B3 (Homo sapiens, UniProt Q9NPD5).
T3 sequence (Q9NPD5 1-702): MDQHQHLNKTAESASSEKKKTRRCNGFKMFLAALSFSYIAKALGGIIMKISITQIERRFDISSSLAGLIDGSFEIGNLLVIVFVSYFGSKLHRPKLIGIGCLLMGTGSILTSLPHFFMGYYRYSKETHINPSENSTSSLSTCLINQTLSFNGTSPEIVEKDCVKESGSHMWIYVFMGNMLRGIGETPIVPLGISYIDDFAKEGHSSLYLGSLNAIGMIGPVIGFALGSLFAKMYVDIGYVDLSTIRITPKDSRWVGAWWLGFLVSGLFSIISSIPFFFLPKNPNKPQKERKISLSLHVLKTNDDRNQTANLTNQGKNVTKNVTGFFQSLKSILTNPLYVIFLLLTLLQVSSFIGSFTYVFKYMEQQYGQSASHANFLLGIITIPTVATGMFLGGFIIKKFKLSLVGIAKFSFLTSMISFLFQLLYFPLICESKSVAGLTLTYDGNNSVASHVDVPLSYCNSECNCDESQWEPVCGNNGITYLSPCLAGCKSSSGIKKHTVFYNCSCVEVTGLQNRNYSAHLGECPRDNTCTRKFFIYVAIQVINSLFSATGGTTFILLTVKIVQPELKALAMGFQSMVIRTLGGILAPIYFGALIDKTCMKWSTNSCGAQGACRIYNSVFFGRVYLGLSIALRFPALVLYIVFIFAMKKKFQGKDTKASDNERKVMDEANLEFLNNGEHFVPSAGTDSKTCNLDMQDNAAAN
The following applies: cited from earlier work.

For the next data set, the system named is OATP2B1. The following applies: cited from earlier work.
Substrate in data set [4]: O=C(O[C@H]1[C@@H]2C=CO[C@@H](O[C@@H]3O[C@H](CO)[C@@H](O)[C@H](O)[C@H]3O)[C@@H]2[C@@]2(CO)O[C@@H]12)c1ccc(O)cc1
In words: Uptake in HEK293 cells overexpressing OAT3. Format: in vitro ADME. The following applies: other: OAT3-mediated uptake, 2–500 μM catalposide, 10 minutes; 37.0 °C.

In general, inhibition refers to the drop in the measured response relative to a control, in per cent. Low values mean little suppression, high ones strong suppression. What is called Km is the concentration of substrate that gives half-maximal velocity.

As to `CN/C(=N/CCSCc1nc[nH]c1C)NC#N` [cimetidine], the “Effect on OAT3-mediated catalposide uptake (words)” value at OAT3 [1] is “decreased to basal levels”; on OAT3 [1] (listed as Cimetidine), “inhibited OAT3-mediated catalposide transport in a concentration-dependent manner”. Also, the inhibition at 10 min, 100 μM against OAT3 [2] stood at 70.4%.
As to `O=c1cc(-c2ccccc2)oc2cc(O)c(O)c(O)c12` [Bicalein], the “Inhibition of OAT3 transport activity” value at OAT3 [3] is reported as “significantly inhibited”. Besides, the “Inhibition of OAT1 transport activity” value on OAT1 is on record as “significantly inhibited”. For the same molecule, the “Inhibition of OATP1B3 transport activity” value at OATP1B3 was “significantly inhibited”.
Take `CCCN(CCC)S(=O)(=O)c1ccc(C(=O)O)cc1` [probenecid]: the “Effect on OAT3-mediated catalposide uptake (words)” value on OAT3 [1] was “decreased to basal levels; also recorded: inhibited OAT3-mediated catalposide transport in a concentration-dependent manner”. This molecule also showed an inhibition at 10 min, 10 μM against OAT3 [2] of 84.5%.
As for `COc1ccc(-c2oc3c(CC=C(C)C)c(O[C@@H]4O[C@H](CO)[C@@H](O)[C@H](O)[C@H]4O)cc(O)c3c(=O)c2O[C@@H]2O[C@@H](C)[C@H](O)[C@@H](O)[C@H]2O)cc1` [icariin], the “Inhibition of OATP2B1 activity” value in the data set with OATP2B1 was “potentially inhibited”. Moreover, the “Inhibition of OATP1B3 activity” value on OATP1B3 was “potentially inhibited”.
`COc1c(O)cc(O)c2c(=O)cc(-c3ccccc3)oc12` [wogonin]: at OAT3 [3], the “Inhibition of OAT3 transport activity” value was “significantly inhibited”. For the same molecule, on OAT1, the “Inhibition of OAT1 transport activity” value is “significantly inhibited”. Further, the “Inhibition of OATP1B3 transport activity” value on OATP1B3 is “significantly inhibited”.

B1: OAT3 (Homo sapiens) (protein)
chain: MTFSEILDRVGSMGHFQFLHVAILGLPILNMANHNLLQIFTAATPVHHCRPPHNASTGPWVLPMGPNGKPERCLRFVHPPNASLPNDTQRAMEPCLDGWVYNSTKDSIVTEWDLVCNSNKLKEMAQSIFMAGILIGGLVLGDLSDRFGRRPILTCSYLLLAASGSGAAFSPTFPIYMVFRFLCGFGISGITLSTVILNVEWVPTRMRAIMSTALGYCYTFGQFILPGLAYAIPQWRWLQLTVSIPFFVFFLSSWWTPESIRWLVLSGKSSKALKILRRVAVFNGKKEEGERLSLEELKLNLQKEISLAKAKYTASDLFRIPMLRRMTFCLSLAWFATGFAYYSLAMGVEEFGVNLYILQIIFGGVDVPAKFITILSLSYLGRHTTQAAALLLAGGAILALTFVPLDLQTVRTVLAVFGKGCLSSSFSCLFLYTSELYPTVIRQTGMGVSNLWTRVGSMVSPLVKITGEVQPFIPNIIYGITALLGGSAALFLPETLNQPLPETIEDLENWSLRAKKPKQEPEVEKASQRIPLQPHGPGLGSS
For B1, in data set [4], the Km was 41.5 µM.
